Results from patent US20210023232A1, “COMBINATION OF POLYETHYLENE GLYCOL AND RAPAMYCIN AND USE THEREOF” (JENKEM TECHNOLOGY CO., LTD. (TIANJIN), priority 2018, published 2021).

Tested on: KLH antibody
Experiment: Influence on keyhole limpet hemoeyanin (KLH) antibody level in immunized mice, serum ELISA potency assay
Format: in vivo, mouse
Settings: for KLH antibody ELISA OD value, data obtained after the third immunization (1: 1K) / KLH antibody ELISA OD value, data obtained after the fourth immunization (1: 1K) / KLH antibody ELISA OD value, data obtained after the third immunization (1: 3K) / KLH antibody ELISA OD value, data obtained after the fourth immunization (1: 3K): Balb/c mice immunized with KLH, test substance given on day 0 and day 7, x ± sd; for KLH antibody ELISA OD value, data obtained after the third immunization (1: 1K) / KLH antibody ELISA OD value, data obtained after the fourth immunization (1: 1K): serum dilution 1:1K; for KLH antibody ELISA OD value, data obtained after the third immunization (1: 1K) / KLH antibody ELISA OD value, data obtained after the third immunization (1: 3K): tail blood day 28-29; for KLH antibody ELISA OD value, data obtained after the fourth immunization (1: 1K) / KLH antibody ELISA OD value, data obtained after the fourth immunization (1: 3K): tail blood day 40-41; for KLH antibody ELISA OD value, data obtained after the third immunization (1: 3K) / KLH antibody ELISA OD value, data obtained after the fourth immunization (1: 3K): serum dilution 1:3K
Protocol: 2.4.1. Antigenic Information: Immunogen: KLH; Tested Substance: KLH
Primary immunization: On the first day, 100 ug antigen (immunogen) and Freund's complete adjuvant in the same volume were formed into a water-in-oil compound by means of mutual injection with a syringe, and then the compound was given to each of 18 mice by subcutaneous multi-point injection.
Second immunization: On the 14th day, 100 ug antigen (immunogen) and Freund's incomplete adjuvant in the same volume were formed into a water-in-oil compound by means of mutual injection with a syringe, and then the compound was given to each of 18 mice by subcutaneous multi-point injection.
Third immunization: On the 24th day, 100 ug antigen (immunogen) and Freund's incomplete adjuvant in the same volume were formed into a water-in-oil compound by means of mutual injection with a syringe, and then the compound was given to each of 18 mice by subcutaneous multi-point injection.
Test of tail blood: On the 28th-29th day, about 20 ul tail blood was collected from the tail vein, followed by 30 min RT and 5 min 5000 rpm centrifugation; then haemocyte precipitate was removed; and serum was taken for Elisa potency assay.
Fourth immunization: On the 34th day, 100 ug antigen (immunogen) and Freund's incomplete adjuvant in the same volume were formed into a water-in-oil compound by means of mutual injection with a syringe, and then the compound was given to each of 18 mice by subcutaneous multi-point injection.
Group G2 (Group IV): immunization was performed with reference to group G1; moreover, […] JK1208R (prepared in Example 1) was given by intravenous injection on the 0th day and 7th day, respectively.
Group G2 (Group IV): immunization was performed with reference to group G1; moreover, 52 μg rapamycin was given by oral administration on the 0th day and 7th day, respectively.
Test of tail blood: On the 40th-41st day, about 20 ul tail blood was collected from the tail vein, followed by 30 min RT and 5 min 5000 rpm centrifugation; then haemocyte precipitate was removed; and serum was taken for ELISA potency assay.
Coating: 10 ug antigen (tested substance) and 10 ml coating buffer (1.6 g […]+2.92 g NaHCO3+100 ml deionized water) were mixed; the solution was applied to the Elisa microplate, 100 ul per pore; the microplate was incubated for 2 h at 37° C. or kept still overnight at 4° C.
Blocking: The antigen coating buffer was sucked and removed from the coated microplate; a blocking buffer (5% dried skimmed milk and coating buffer) was directly added, 150 ul per pore; the microplate was treated for 2 h at 37° C., followed by three times of washing with de-ionized water; then the microplate was provisionally stored at 4° C.
Assay: serum and 1×PBS was mixed at a ratio of 1:1000; 150 ul diluent was added into the first pore; 100 ul 1×PBS were respectively added into each of the 2nd-8th pores; 50 ul liquid was transferred from the first pore into the second pore, followed by suction blow for 10 times; then, 50 ul liquid was transferred into the third pore, followed by suction blow for 10 times; next, 50 ul liquid was transferred into the fourth pore, followed by suction blow for 10 times; the test was done in the similar way in turn until the 7th pore, 50 ul liquid was removed from the 7th pore; the […] pore was a negative control group; the microplate was incubated for 1 h at 37° C., followed by three times of washing with de-ionized water; then a second antibody (goat-anti-mouse IgG-HRP 1:10000 1×PBS) was added, 100 ul each pore; the microplate was incubated for 30 min at 37° C., followed by three times of washing with de-ionized water; a chromogenic solution was added (according to the instructions on the reagent box), 100 ul each pore; the microplate was incubated for 10 min at 37° C. and then ended (2M sulphuric acid, 30 ul per pore). The OD value was tested with the microplate reader.

`CO[C@H]1C[C@@H]2CC[C@@H](C)[C@@](O)(O2)C(=O)C(=O)N2CCCC[C@H]2C(=O)O[C@H]([C@H](C)C[C@@H]2CC[C@@H](O)[C@H](OC)C2)CC(=O)[C@H](C)/C=C(\C)[C@@H](O)[C@@H](OC)C(=O)[C@H](C)C[C@H](C)/C=C/C=C/C=C/1C` [rapamycin] was tested, and the “KLH antibody ELISA OD value, data obtained after the third immunization (1: 1K)” value was 1.77 ± 0.33, the “KLH antibody ELISA OD value, data obtained after the fourth immunization (1: 1K)” value was 2.56 ± 0.11 and the “KLH antibody ELISA OD value, data obtained after the third immunization (1: 3K)” value was 1.49 ± 0.38. The “KLH antibody ELISA OD value, data obtained after the fourth immunization (1: 3K)” value was 2.40 ± 0.24.
“monomethoxy polyethylene glycol-glutamic dipeptide-rapamycin [JK1208R]” was tested, and the “KLH antibody ELISA OD value, data obtained after the third immunization (1: 1K)” value was 1.33 ± 0.24, the “KLH antibody ELISA OD value, data obtained after the fourth immunization (1: 1K)” value was 1.85 ± 0.32 and the “KLH antibody ELISA OD value, data obtained after the third immunization (1: 3K)” value was 0.86 ± 0.20. For the same compound, the “KLH antibody ELISA OD value, data obtained after the fourth immunization (1: 3K)” value was 1.54 ± 0.31, the “Effect on generation of the KLH antibody” value (after the fourth immunization) was “could remarkably resist the generation of the KLH antibody” and the “Statistical difference from immune model group after the fourth immunization” value (at 1:1K and 1:3K) was “show remarkably difference”. For the same compound, the “Statistical difference from immune model group after the third immunization” value (at 1:3K) was “show remarkably difference”.
